“Also recorded” adds a separate entry of the source.
Columns and labels:
G6PD [1] = test: G6PD activity in BAEC; format: cell-based, bovine; conditions: for G6PD activity: VEGF 100 ng/ml
Source text: (§1) To investigate the role of G6PD in vascular endothelial cell proliferation, we initially sought to determine if growth factors involved in angiogenesis, such as vascular endothelial growth factor (VEGF), influenced G6PD activity.
(§2) To examine further the role of G6PD in VEGF-mediated cell proliferation, we next inhibited G6PD activity by exposing BAEC to dehydroepiandrosterone (DHEA) ([…]), a noncompetitive inhibitor of G6PD, for 24 hr.
(§3) As a control, we used a phosphorothioate oligodeoxynucleotide with a scrambled sequence (SS).
(§4) We have recently constructed an adenoviral vector incorporating murine G6PD cDNA (93% homologous to the rat cDNA).

[2] = system: bovine aortic endothelial cells (BAEC); test: Cellular NADPH levels in BAEC; format: cell-based; conditions: for cellular NADPH levels: VEGF 100 ng/ml
Source text: as §1, §4

[3] = system: bovine aortic endothelial cells (BAEC); test: Cell-wounding migration assay; format: cell-based; conditions: VEGF 100 ng/ml, serum-free media, 18 hr
Procedure: FIGS. 3A-D show G6PD and endothelial cell migration.
We next examined the role of G6PD on VEGF-stimulated endothelial cell migration. In a cell-wounding migration assay, BAEC were grown to confluence on a P100 culture dish. Using a sterile scalpel, a vertical incision was made in the midline of the dish, and under microscopic guidance, BAEC were removed from one-half of the plate. BAEC were then incubated with VEGF (100 ng/ml) in serum-free media, and cell migration across the midline was observed after 18 hr and quantified by the average cell count in 5 high powered fields.

[4] = system: bovine aortic endothelial cells (BAEC); test: Cell migration in modified Boyden chamber; format: cell-based; conditions: for cell migration (fluorescence), result in words: BAEC; for cell migration: VEGF-stimulated BAEC (100 ng/ml, 18 hr) with eNOS inhibitor (L-NAME 1 mmol/L, L-NMMA 100 μmol/L)
Procedure: Fluorescently labeled, BAEC were stimulated with VEGF (100ng/ml) for 18 hr and cell migration was assessed in a modified Boyden Chamber.
BAEC were fluorescently labeled with calcein AM (Molecular Probes, Inc.) and 0.4×10^3 cells were loaded to the top of a pre-fitted membrane filter that fit a specially designed 96-well microplate. The microplate wells were loaded with serum-free media and VEGF (100 ng/ml) for 18 hr., and cells were allowed to migrate across the membrane. The plate was then analyzed using a fluorescent microplate reader.

[5] = system: bovine aortic endothelial cells (BAEC); test: Endothelial cell tube formation on Matrigel; format: cell-based; conditions: VEGF 100 ng/ml for 12 hr
Procedure: FIGS. 5A and B show G6PD and Tube Formation. BAEC were transfected with an antisense oligodecocynucleotide to G6PD and mRNA (AS) or a scrambled control (SS) and plated on Matrigel. Cells were then stimulated with VEGF and tube formation was assessed visually (5A) and quantified using area analysis with background substration (5B). Results of area analysis are the average of 10 high-powered fields.
FIGS. 6A and B show G6PD overexpression and tube formation. G6PD expression was increased via adenoviral-mediated gene transfer. BAEC were then placed on Matrigel and stimulated with VEGF ([…]).
To examine the role of G6PD in endothelial cell tube formation in vitro, we plated BAEC on Matrigel and stimulated cells with VEGF (100ng/ml) for 12 hr. Results were quantified using NIH Image to determine area of tube formation. Under basal conditions, BAEC plated on Matrigel formed tubes and networks that were increased following exposure to VEGF.
In order to confirm that G6PD importantly modulates tube formation in vitro, we next increased G6PD expression via adenoviral-mediated gene transfer and examined tube formation.

[6] = system: C3H wild-type (WT) and hemizygous male (HEMI) mice; test: In vivo Matrigel plug migration assay; design: species or system mouse
Procedure: To examine the effect of G6PD activity on angiogenesis in vivo, we performed an in vivo Matrigel migration assay in C3H wild-type (WT) and hemizygous male (HEMI) mice. Matrigel, derived from mouse basement membrane proteins, was implanted subcutaneously in the groin area to form a Matrigel “plug”. Each mouse was injected on one side with either Matrigel alone, or Matrigel supplemented with VEGF (100 ng/ml). In this manner, each animal could serve as its own control. Plugs were left in place for 14 days. Following this time, the animals were euthanized, plugs excised with surrounding tissue for orientation, and embedded and sectioned in paraffin. Sections were then stained with Hematoxylin & Eosin (H&E). Images were captured digitally and assessed for cell counts. For orientation purposes, a representative Matrigel plug from a WT mouse at 4× (right) and 20× (left) magnification is shown below (FIG. 9).
These findings were quantified by counting cells in 10 randomly selected high-power (20×) fields per image in 3 successive images. […] These findings confirm that G6PD modulates angiogenesis in vivo.
We next wanted to determine if we could “rescue” the G6PD-deficient phenotype using gene transfer to increase local G6PD expression. We treated Matrigel with an adenoviral vector encoding for G6PD implanted plugs in HEMI mice for 7 days in the presence or absence of VEGF (FIG. 13).

G6PD [7] = test: G6PD expression by Western analysis in BAEC; format: cell-based, bovine
Source text: as §1, §3, §4

[8] = system: bovine aortic endothelial cells (BAEC); test: Endothelial cell proliferation by [3H]-thymidine incorporation; format: cell-based
Procedure: FIGS. 1A and 1B show G6PD and endothelial cell proliferation. BAEC were treated with DHEA to decrease G6PD activity and stimulated with VEGF (100 ng/ml) for 8 hr (1A). Cell proliferation is measured by [^3H]-Thymidine incorporation. G6PD expression was inhibited by trans(in)fection with an antisense oligonucleotide to G6PD mRNA (AS) or a scrambled control (SS) and proliferation was determined by [^3H]-Thymidine incorporation (1B). Results are expressed as counts per minute (cpm) and data presented as mean±SEM. *p<0.01 vs.−VEGF.**p<0.01 vs.−DHEA or −SS.
as §2, §3, §4

[9] = system: bovine aortic endothelial cells (BAEC); test: Cell death by lactate dehydrogenase activity measured in the media; format: cell-based; conditions: DHEA-treated BAEC
Source text: as §2

[10] = DHEA-treated or AS transfection for 5 hours

For VEGF, the G6PD activity (G6PD [1]; 24 hr) was 87±19 units/6 min/mg protein, the G6PD activity (G6PD [1]; after 4 hr) was 182.7±37 units/6 min/mg protein and the “cellular NADPH levels” value ([2]; 4 hr) was 0.5±0.04 mmoles/mg protein. For the same compound, the “cellular NADPH levels” value ([2]; 24 hr) was 0.4±0.08 mmoles/mg protein, the “cell migration across the midline, average cell count” value [3] was 28±6 cells/hpf and the “cell migration as fluorescence” value ([4]; BAEC with normal G6PD activity, VEGF 100 ng/ml, 18 hr) was 55.3±6.6 units. For the same compound, the “cell migration (fluorescence), result in words” value ([4]; VEGF 100 ng/ml, 18 hr) was “significant increase in fluorescence”, the “tube formation / vessel area” value [5] was “increased” and the “cell migration into the Matrigel plug” value ([6]; HEMI mice, 7 days) was “not increased significantly”. The “cell migration into the Matrigel plug” value ([6]; HEMI mice, 14 days, Matrigel with VEGF 100 ng/ml) was “did not significantly improve this response”, the “cell migration into the Matrigel plug” value ([6]; WT mice, 14 days, Matrigel with VEGF 100 ng/ml) was “increased the number of cells migrating into the Matrigel plug” and the G6PD expression (G6PD [7]) was “did not increase G6PD expression”.
For `CNC(=N)NCCC[C@H](N)C(=O)O` [L-NMMA], the cell migration [4] was 21.6±7.3 units.
With `COC(=O)[C@@H](N)CCCNC(=N)N[N+](=O)[O-]` [L-NAME] the cell migration [4] was 23.6±17 units.
`C[C@]12CC[C@H](O)CC1=CC[C@@H]1[C@@H]2CC[C@]2(C)C(=O)CC[C@@H]12` [DHEA, dehydroepiandrosterone] was tested, and the “reduction in G6PD activity” value (G6PD [1]; [10]) was 60%, the “decrease in the level of cellular NADPH” value [2, 10] was 30% and the “cell migration across the midline, average cell count” value [3] was 10±2 cells/hpf. For the same compound, the “[3H]-thymidine incorporation” value ([8]; basal conditions (DHEA 100 pmol/L for 24 hr; AS or SS transfected)) was 9,967±1,531 cpm, the “[3H]-thymidine incorporation” value ([8]; following stimulation with VEGF 100 ng/ml for 8 hr) was 8,902±1,451 cpm and the “cell migration (fluorescence), result in words” value ([4]; VEGF 100 ng/ml, 18 hr) was “abrogated; also recorded: VEGF did not significantly increase migration”. The “cell death by lactate dehydrogenase activity in the media” value [9] was “not the result of increased cell death”.

Reference: patent US20050032687A1, “Method and composition for the modulation of angiogenesis” (priority 2001, published 2005)
